Measured values taken from ChEMBL document CHEMBL1201862, “PubChem BioAssay data set” (2004).
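Briefly, cells in 96-well plates were exposed to five compound concentrations for 48 h, and endpoints were estimated by linear interpolation. The concentration for 50% growth inhibition is given as GI50.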 The source made the active and inactive calls. No stated cut-off is given here; in the data, active = GI50 up to about 1.1 µM and inactive = higher.

Experiments:
Experiment in all cases: inhibition of tumour cell growth, NCI panel, 48 h
786-0 = system: 786-0
A549 = system: A549
ACHN = system: ACHN
BT-549 = system: BT-549
CAKI-1 = system: CAKI-1
COLO 205 = system: COLO 205
DU-145 = system: DU-145
EKVX = system: EKVX
HCC 2998 = system: HCC 2998
HCT-116 = system: HCT-116
HCT-15 = system: HCT-15
HOP-62 = system: HOP-62
HOP-92 = system: HOP-92
HT-29 = system: HT-29
Hs-578T = system: Hs-578T
IGROV-1 = system: IGROV-1
K562 = system: K562
KM12 = system: KM12
M14 = system: M14
MCF7 = system: MCF7
MDA-MB-231 = system: MDA-MB-231
MDA-MB-435 = system: MDA-MB-435
MDA-N = system: MDA-N
MOLT-4 = system: MOLT-4
Malme-3M = system: Malme-3M
NCI-H226 = system: NCI-H226
NCI-H23 = system: NCI-H23
NCI-H460 = system: NCI-H460
NCI-H522 = system: NCI-H522
NCI/ADR-RES = system: NCI/ADR-RES
OVCAR-3 = system: OVCAR-3
OVCAR-5 = system: OVCAR-5
OVCAR-8 = system: OVCAR-8
PC-3 = system: PC-3
RPMI-8226 = system: RPMI-8226
RXF 393 = system: RXF 393
SF-268 = system: SF-268
SF-295 = system: SF-295
SF-539 = system: SF-539
SK-MEL-28 = system: SK-MEL-28
SK-MEL-2 = system: SK-MEL-2
SK-MEL-5 = system: SK-MEL-5
SK-OV-3 = system: SK-OV-3
SN12C = system: SN12C
SNB-19 = system: SNB-19
SR = system: SR
SW-620 = system: SW-620
T47D = system: T47D
TK-10 = system: TK-10
U-251 = system: U-251
UACC-257 = system: UACC-257
UACC-62 = system: UACC-62
UO-31 = system: UO-31
CCRF-CEM = system: CCRF-CEM
LOX IMVI = system: LOX IMVI
OVCAR-4 = system: OVCAR-4
SNB-75 = system: SNB-75
HL-60 = system: HL-60
A498 = system: A498

Measured: GI50

CCOC(=O)[C@@H]1C[C@H]1c1ccc(O)c(O)c1
33.6 µM: HCT-15
inactive: 786-0 41.4 µM | A549 41.3 µM | ACHN 65.2 µM | BT-549 43.4 µM | CAKI-1 29.7 µM | COLO 205 57.8 µM | DU-145 10.1 µM | EKVX > 100 µM | HCC 2998 31.6 µM | HCT-116 14.4 µM | HOP-62 84.9 µM | HOP-92 > 100 µM | HT-29 55.5 µM | Hs-578T 28.4 µM | IGROV-1 24.4 µM | K562 10.9 µM | KM12 > 100 µM | M14 34.8 µM | MCF7 43.9 µM | MDA-MB-231 23.2 µM | MDA-MB-435 10.2 µM | MDA-N 12.7 µM | MOLT-4 18.5 µM | Malme-3M 31.8 µM | NCI-H226 70.6 µM | NCI-H23 4.74 µM | NCI-H460 58.2 µM | NCI-H522 16.4 µM | NCI/ADR-RES 43.3 µM | OVCAR-3 29 µM | OVCAR-5 > 100 µM | OVCAR-8 37.9 µM | PC-3 14.6 µM | RPMI-8226 30.9 µM | RXF 393 26.6 µM | SF-268 67.6 µM | SF-295 > 100 µM | SF-539 91 µM | SK-MEL-28 25.4 µM | SK-MEL-2 18.2 µM | SK-MEL-5 16.6 µM | SK-OV-3 43.1 µM | SN12C 75.5 µM | SNB-19 > 100 µM | SR 45.3 µM | SW-620 18.6 µM | T47D 30.1 µM | TK-10 20.7 µM | U-251 69.7 µM | UACC-257 19.9 µM | UACC-62 17.1 µM | UO-31 31.3 µM

N#Cc1nc(COCc2ccccc2)oc1N
51.1 µM: HCT-15
inactive: 786-0 > 100 µM | A549 > 100 µM | ACHN > 100 µM | BT-549 29.6 µM | CAKI-1 > 100 µM | CCRF-CEM 17.9 µM | COLO 205 > 100 µM | DU-145 > 100 µM | EKVX > 100 µM | HCC 2998 > 100 µM | HCT-116 > 100 µM | HOP-62 > 100 µM | HOP-92 > 100 µM | HT-29 > 100 µM | Hs-578T > 100 µM | IGROV-1 > 100 µM | K562 49.7 µM | KM12 58.6 µM | LOX IMVI > 100 µM | M14 > 100 µM | MCF7 > 100 µM | MDA-MB-231 > 100 µM | MDA-MB-435 > 100 µM | MDA-N > 100 µM | MOLT-4 > 100 µM | Malme-3M 28.7 µM | NCI-H226 > 100 µM | NCI-H23 > 100 µM | NCI-H522 2.97 µM | NCI/ADR-RES > 100 µM | OVCAR-3 > 100 µM | OVCAR-4 > 100 µM | OVCAR-5 > 100 µM | OVCAR-8 > 100 µM | PC-3 > 100 µM | RPMI-8226 74.8 µM | RXF 393 > 100 µM | SF-268 > 100 µM | SF-295 > 100 µM | SF-539 > 100 µM | SK-MEL-28 > 100 µM | SK-MEL-2 > 100 µM | SK-OV-3 > 100 µM | SN12C > 100 µM | SNB-19 > 100 µM | SNB-75 > 100 µM | SR > 100 µM | SW-620 > 100 µM | T47D > 100 µM | TK-10 > 100 µM | U-251 > 100 µM | UACC-257 > 100 µM | UACC-62 > 100 µM | UO-31 > 100 µM

C=C(C)CNC(=S)N(N)c1ccc(OC)cc1
inactive: 786-0 > 100 µM | A549 > 100 µM | ACHN 39.2 µM | BT-549 > 100 µM | CCRF-CEM 94 µM | COLO 205 > 100 µM | DU-145 > 100 µM | EKVX 82.2 µM | HCC 2998 > 100 µM | HCT-116 > 100 µM | HL-60 > 100 µM | HOP-62 > 100 µM | HOP-92 > 100 µM | HT-29 74.8 µM | Hs-578T > 100 µM | IGROV-1 58.6 µM | K562 39.6 µM | KM12 39.2 µM | LOX IMVI > 100 µM | M14 > 100 µM | MCF7 > 100 µM | MDA-MB-231 > 100 µM | MDA-MB-435 54.8 µM | MDA-N 99.3 µM | MOLT-4 96.6 µM | Malme-3M > 100 µM | NCI-H226 > 100 µM | NCI-H23 > 100 µM | NCI-H460 > 100 µM | NCI-H522 56.1 µM | NCI/ADR-RES > 100 µM | OVCAR-3 > 100 µM | OVCAR-4 > 100 µM | OVCAR-5 > 100 µM | OVCAR-8 > 100 µM | PC-3 > 100 µM | RPMI-8226 > 100 µM | RXF 393 > 100 µM | SF-268 55.3 µM | SF-295 > 100 µM | SF-539 > 100 µM | SK-MEL-28 > 100 µM | SK-MEL-5 > 100 µM | SK-OV-3 > 100 µM | SN12C 66.8 µM | SNB-19 > 100 µM | SNB-75 99.8 µM | SR > 100 µM | SW-620 > 100 µM | T47D > 100 µM | TK-10 > 100 µM | U-251 > 100 µM | UACC-257 > 100 µM | UACC-62 24.2 µM | UO-31 52.6 µM
21.8 µM: HCT-15

CCOC(=O)c1c(N2CCOCC2)[nH]c(=O)c(C(c2ccc(OC)cc2)c2c(O)c(C(=O)OCC)c(N3CCOCC3)[nH]c2=O)c1O
> 100 µM: HCT-15
inactive: 786-0 > 100 µM | A498 > 100 µM | A549 > 100 µM | ACHN > 100 µM | BT-549 > 100 µM | CAKI-1 > 100 µM | CCRF-CEM > 100 µM | COLO 205 > 100 µM | DU-145 > 100 µM | EKVX > 100 µM | HCC 2998 > 100 µM | HCT-116 > 100 µM | HOP-62 > 100 µM | HOP-92 > 100 µM | HT-29 > 100 µM | Hs-578T > 100 µM | K562 > 100 µM | KM12 > 100 µM | LOX IMVI > 100 µM | M14 > 100 µM | MCF7 > 100 µM | MDA-MB-231 > 100 µM | MDA-MB-435 > 100 µM | MDA-N > 100 µM | MOLT-4 > 100 µM | Malme-3M > 100 µM | NCI-H226 > 100 µM | NCI-H23 > 100 µM | NCI-H460 > 100 µM | NCI-H522 > 100 µM | NCI/ADR-RES > 100 µM | OVCAR-3 > 100 µM | OVCAR-4 > 100 µM | OVCAR-5 > 100 µM | OVCAR-8 > 100 µM | PC-3 > 100 µM | RPMI-8226 > 100 µM | RXF 393 > 100 µM | SF-268 > 100 µM | SF-295 > 100 µM | SF-539 > 100 µM | SK-MEL-28 > 100 µM | SK-MEL-5 > 100 µM | SK-OV-3 > 100 µM | SN12C > 100 µM | SNB-19 > 100 µM | SNB-75 > 100 µM | SR > 100 µM | SW-620 > 100 µM | T47D > 100 µM | TK-10 > 100 µM | U-251 > 100 µM | UACC-257 > 100 µM | UACC-62 > 100 µM | UO-31 > 100 µM

COc1cc2c(cc1OC)-c1cc3ccc(OC)c(OC)c3c[n+]1CC2 [PALMATINE CHLORIDE]
> 100 µM: HCT-15
inactive: 786-0 > 100 µM | A549 > 100 µM | ACHN > 100 µM | BT-549 > 100 µM | CAKI-1 > 100 µM | CCRF-CEM > 100 µM | COLO 205 24.4 µM | DU-145 > 100 µM | EKVX > 100 µM | HCC 2998 > 100 µM | HCT-116 > 100 µM | HL-60 > 100 µM | HOP-62 > 100 µM | HOP-92 > 100 µM | HT-29 > 100 µM | Hs-578T > 100 µM | IGROV-1 > 100 µM | K562 52.4 µM | KM12 > 100 µM | M14 > 100 µM | MCF7 > 100 µM | MDA-MB-231 > 100 µM | MDA-MB-435 > 100 µM | MDA-N > 100 µM | MOLT-4 > 100 µM | Malme-3M > 100 µM | NCI-H226 > 100 µM | NCI-H460 > 100 µM | NCI-H522 > 100 µM | NCI/ADR-RES > 100 µM | OVCAR-3 39.9 µM | OVCAR-4 > 100 µM | OVCAR-5 > 100 µM | OVCAR-8 > 100 µM | PC-3 > 100 µM | RPMI-8226 > 100 µM | RXF 393 > 100 µM | SF-268 82.4 µM | SF-295 > 100 µM | SF-539 > 100 µM | SK-MEL-28 > 100 µM | SK-MEL-2 97.1 µM | SK-MEL-5 34.8 µM | SK-OV-3 > 100 µM | SN12C > 100 µM | SNB-19 15.5 µM | SNB-75 > 100 µM | SR > 100 µM | SW-620 > 100 µM | T47D 83.4 µM | TK-10 > 100 µM | U-251 27.9 µM | UACC-257 48.5 µM | UACC-62 > 100 µM | UO-31 > 100 µM
